How the values were obtained:
[1] = Liver S9 stability determination; format: in vitro ADME; settings: pooled liver S9 fraction; human liver S9 fraction, 1 μM compound, 37° C., up to 120 mins; read-out: liver S9 t1/2
Text: The liver is the main organ of metabolism and contains a high concentration of drug metabolizing enzymes. Metabolic clearance, particularly hepatic, is one of the main determinants affecting systemic drug exposure following both oral and i.v. administration. To assess the ability of the compounds of the invention to reach a systemic circulation, the hepatic S9 fraction was chosen to test for stability of the compounds. Hepatic S9 fraction was obtained following centrifugation of homogenized liver tissue at 9,000 g. The hepatic S9 fraction is composed of both microsomal and cytosolic fractions and contains all the enzymes contained in microsomes plus additional phase I and phase II cytosolic enzymes.
Stock solutions of each tested compound (100 μM) were prepared in methanol by two subsequent 1:10 dilutions from 10 mM DMSO drug solutions, the final assay concentration was 1 μM. Frozen pooled liver S9 fraction was thawed from −20° C. and diluted in phosphate buffer (with and without NADPH) which was pre-warmed at 37° C. for 10 minutes. The reaction was initiated by addition of compound. Manual sample plates were incubated on a Thermo Max Q 2000 shaker placed in a temperature controlled Sartorius Certomat H hood set at 37° C. Sequential samples were removed at designated timepoints (0, 5, 15, 30, 60 and 120 mins) and quenched with 4 volumes of ice cold acetonitrile (containing internal standard, diazepam), centrifuged and supernatants reconstituted in water (acetonitrile:water, 50:50% v/v). Samples were then analyzed by LCMS/MS or LC-UV to assess parent depletion. In vitro half-life (t1/2) is calculated based on the rate of disappearance of compound from the reaction mixture at incubation timepoints up to 2 hours.

[2] = Nucleoside triphosphate concentrations in dog PBMC after oral administration; format: in vivo; settings: oral administration of 3 mg/Kg
Protocol: Male beagle dogs were administered a single intravenous (0.5 mg/kg) or oral dose (3-15 mg/kg) of a representative compound of the present invention. Blood samples (3.5 mL) were collected at 0, 0.0833 (IV only), 0.25, 0.5, 1, 2, 4, 6, 8, 24, 48, 72 hours post-dose through the jugular vein. K2EDTA was used as the anticoagulant. Plasma was prepared from an aliquot of 0.5 mL of blood and assayed for the compound and metabolites by tandem mass spectrometric method (LC/MS-MS). PBMC was isolated from 3 mL of blood and assayed for nucleoside triphosphate (NTP) levels by LC/MS-MS.
Three mL of blood was collected from the dog into EDTA vacutainers and mixed on a rocker & immediately placed on ice. The blood was transferred to a 15 mL falcon tube. Three mL PBS (w/o Ca/Mg) and 3 mL 6% dextran (in PBS) were added and was left for 30 minutes on ice to allow the red blood cells to sediment. Blood supernatant (5-7 mL) was layered on top of 5 mL of Mammalian-Lympholyte in 15-mL conical blue-top tube, centrifuged for 20 minutes at 1500 g at 4° C.
After centrifugation, the well-defined lymphocyte (PBMC) layer at the interface was carefully removed to a new 15-mL centrifuge tube and was diluted to a total volume of 15 mL to reduce the density of the solution. The content was centrifuged at 800 g for 10 minutes at 4° C. to pellet the PBMC. The pellet was re-suspended in 1 mL of PBS and further diluted to 10 mL, followed by centrifugation at 800 g for 10 minutes at 4° C. to pellet the PBMC. The pellet was re-suspended in 1 mL PBS and followed by 5 mL ice cold de-ionized water, mixed for 30 seconds by inverting to lyse the remaining red blood cells. Five ml of ice cold 2×PBS was added to bring the mixture back to isotonicity. The mixture was centrifuged at 800 g for 10 minutes at 4° C. to pellet the cells and discard the supernatant. The resulting pellet was re-suspended in 1 mL PBS. An aliquot of 10 μL of the pellet suspension was diluted into 90 μL of PBS for cell count. An aliquot of each sample was transferred to a fresh Eppendorf tubes and centrifuged at 5000 rpm for 5 min at 4° C. The pellets were ready for bioanalysis.
Concentrations of nucleoside triphosphate in PBMC were determined by tandem mass spectrometric method (LC/MS/MS). Chromatography was conducted on ACQUITY UPLC HSS T3 Column, 100 Å, 1.8 μm, 2.1 mm×50 mm using a mobile phase gradient consisting of (A) 2 mM ammonium dihydrogen-phosphate and 5 mM Hexylamine in (B) Acetonitrile, 8% B to 22% B in 3.2 minutes at a flow rate of 0.3 mL/minute. The mass spectrometer was operated in the Multiple Reaction Monitoring (MRM) using negative ionization mode. An internal standard, Carbosynth was used in the construction of standard calibration curves in blank PBMC obtained commercially. The nucleoside triphosphate was monitored at m/z 538.1>158.9 and the internal standard was monitored at 536.1>158.9. The dynamic range was 50, 100, 300, 1000, 3000, 10000, 30000 fmole/3×10^6 PBMC.

[3] = Stability in liver microsomes; format: in vitro ADME; settings: human, read-out: liver microsomes t1/2
[4] = CCK8 cytotoxicity assay in THP-1 cells; format: cell-based; settings: human, CCK-8
Protocol: 4 day cytotoxicity assay using THP-1 cells: THP-1 cells grown in suspension were counted and diluted to 8×10^4 cells/ml in RPMI-1640 media supplemented with 10% fetal bovine serum (FBS) and 1% penicillin/streptomycin. 25 ul of the THP-1 containing media consisting of 2000 cells were dispensed in 384-well tissue culture plate and pre-incubated at room temperature for 30 minutes, followed by 37° C., 5% CO2 overnight in the humidified incubator. On the next day, serial-diluted compound plates were prepared and 125 nl of compounds at various concentrations were then dispensed into the tissue culture well (200× dilution). The plates were then transferred to 37° C., 5% CO2 humidified incubator for additional 96 hours. Cytotoxicity was measured by CCK-8 assay. Briefly, CCK-8 was thawed on bench top and diluted 2.5× with the growth media. 35 ul of the pre-diluted CCK-8 was then introduced into each well and the plates were then further incubated in 37° C., 5% CO2 humidified incubator for 3 hours. The absorbance was read by Envision at 450 nm. Dose response curves were calculated as in the previous section (n=2). The CC50 is estimated as the concentration of the compound which will inhibit 50% of the signal. A positive control (puromycin) was used to ensure the quality of the data.

Question: Which half-life at 1 μM [1] does the source give for CCOC(=O)[C@H](C)N[P@@]1(=O)OC[C@H]2O[C@@H](n3cnc4c(OCC)nc(N)nc43)[C@](C)(F)[C@@H]2O1 [Example 1, (S)-ethyl 2-(((2R,4aR,6R,7R,7aR)-6-(2-amino-6-ethoxy-9H-purin-9-yl)-7-fluoro-7-methyl-2-oxidotetrahydro-4H-furo[3,2-d][1,3,2]dioxaphosphinin-2-yl)amino)propanoate] here?
Answer: The half-life at 1 μM was 76 min.

Question: And the “NTP AUC0-24h” value [2]?
Answer: Its value is 36900 ± 11358 fmol/3 million cells.

Question: And the “NTP Cmax” value [2]?
Answer: The value was 2331 ± 1181 fmol/3 million cells.

Question: What about the half-life [3] of the same compound?
Answer: Its half-life is 47 min.

Question: And the CC50 at 96 h [4]?
Answer: Its CC50 at 96 h is greater than 50 µM.

Question: Which half-life at 1 μM [1] does the source give for CCOc1nc(N)nc2c1ncn2[C@@H]1O[C@@H]2CO[P@@](=O)(N[C@@H](C)C(=O)OC(C)C)O[C@H]2[C@@]1(C)F [Example 2, (S)-isopropyl 2-(((2S,4aR,6R,7R,7aR)-6-(2-amino-6-ethoxy-9H-purin-9-yl)-7-fluoro-7-methyl-2-oxidotetrahydro-4H-furo[3,2-d][1,3,2]dioxaphosphinin-2-yl)amino)propanoate] here?
Answer: Its half-life at 1 μM is 36 min.

Question: What about the “NTP AUC0-24h” value [2] of the same compound?
Answer: The value was 7218 ± 5117 fmol/3 million cells.

Question: What about the “NTP Cmax” value [2] of the same compound?
Answer: Its value is 618 ± 308 fmol/3 million cells.

Question: What about the half-life [3] of the same compound?
Answer: The half-life was 32 min.

Question: What about the CC50 at 96 h [4] of the same compound?
Answer: The CC50 at 96 h was 34 µM.

Question: With CCOc1nc(N)nc2c1ncn2[C@@H]1O[C@@H]2CO[P@](=O)(N[C@@H](C)C(=O)OC)O[C@H]2[C@@]1(C)F [Example 3, (S)-methyl 2-(((2R,4aR,6R,7R,7aR)-6-(2-amino-6-ethoxy-9H-purin-9-yl)-7-fluoro-7-methyl-2-oxidotetrahydro-4H-furo[3,2-d][1,3,2]dioxaphosphinin-2-yl)amino)propanoate] as the compound, how does the half-life at 1 μM [1] read?
Answer: Its half-life at 1 μM is greater than 120 min.

Question: What about the “NTP AUC0-24h” value [2] of the same compound?
Answer: The value was 10457 ± 2983 fmol/3 million cells.

Question: What about the “NTP Cmax” value [2] of the same compound?
Answer: The value was 662 ± 228 fmol/3 million cells.

Question: What about the half-life [3] of the same compound?
Answer: The half-life was 57 min.

Question: And the CC50 at 96 h [4]?
Answer: The CC50 at 96 h was greater than 50 µM.

Question: For CCOc1nc(N)nc2c1ncn2[C@@H]1O[C@@H]2CO[P@@](=O)(N[C@H](C)C(=O)OC(C)C)O[C@H]2[C@@]1(C)F [Example 6, (R)-isopropyl 2-(((2S,4aR,6R,7R,7aR)-6-(2-amino-6-ethoxy-9H-purin-9-yl)-7-fluoro-7-methyl-2-oxidotetrahydro-4H-furo[3,2-d][1,3,2]dioxaphosphinin-2-yl)amino)propanoate], which half-life at 1 μM [1] is on record?
Answer: The half-life at 1 μM was greater than 120 min.

Question: And the “NTP AUC0-24h” value [2]?
Answer: The value was 11049 ± 2190 fmol/3 million cells.

Question: And the “NTP Cmax” value [2]?
Answer: The value was 777 ± 45.2 fmol/3 million cells.

Question: And the CC50 at 96 h [4]?
Answer: Its CC50 at 96 h is greater than 50 µM.

— patent US20140205566A1, “CYCLIC NUCLEUOSIDE DERIVATIVES AND USES THEREOF” (NOVARTIS AG, priority 2012, published 2014)
